In US20250263426A1, “PDE4B INHIBITOR AND USE THEREOF” (Xizang Haisco Pharmaceutical Co., Ltd., priority 2022, published 2025):
Where two headings read alike, the source gives them in different places.

Tests used:
PDE4B2 = PDE4B2 (Homo sapiens (Human), UniProt Q07343); test: Effect of compounds on PDE4B2 activity (fluorescence polarization kit)
Description: [formula] • I∥ (S535): fluorescence intensity in parallel direction • I⊥ (P535): fluorescence intensity in perpendicular direction • G: G factor=1

PDE4D2 = PDE4D2 (Homo sapiens (Human), UniProt Q08499); test: Effect of compounds on PDE4D2 activity (fluorescence polarization kit); assay type: biochemical
Chain of PDE4D2 (Q08499 303-809, change not shown): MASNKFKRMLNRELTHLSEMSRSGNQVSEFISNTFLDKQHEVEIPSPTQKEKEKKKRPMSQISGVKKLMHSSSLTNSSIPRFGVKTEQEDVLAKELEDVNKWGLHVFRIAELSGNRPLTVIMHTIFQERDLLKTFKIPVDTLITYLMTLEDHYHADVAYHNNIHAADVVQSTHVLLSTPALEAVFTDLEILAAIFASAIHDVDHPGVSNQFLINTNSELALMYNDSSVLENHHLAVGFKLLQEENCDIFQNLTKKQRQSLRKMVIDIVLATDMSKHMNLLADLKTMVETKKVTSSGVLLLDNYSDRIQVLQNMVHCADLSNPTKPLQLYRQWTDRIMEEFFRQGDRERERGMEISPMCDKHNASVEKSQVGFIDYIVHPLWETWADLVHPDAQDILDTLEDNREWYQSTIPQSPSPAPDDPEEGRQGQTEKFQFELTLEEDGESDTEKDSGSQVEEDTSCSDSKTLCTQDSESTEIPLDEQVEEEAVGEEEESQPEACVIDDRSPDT
Description: FP was usually represented by mP value.
[formula] • I∥ (S520): fluorescence intensity in parallel direction • I⊥ (P520): fluorescence intensity in perpendicular direction • G: G factor=1
[formula] • mP(sample): mP of the test compound in a reaction well • mP(negative control): mP in the negative control well • mP(positive control): mP in the positive control well
According to the calculated inhibition rate at each concentration, the IC50 value of each compound was calculated by GraphPad Prism 8 software.

[1] = system: human peripheral blood mononuclear cells (TNF-α release); test: Inhibition of LPS-induced TNF-α release from human peripheral blood mononuclear cells in vitro; assay type: cell-based; conditions: 4 h; for IC50: read-out: Re IC50
Description: 5. Detection of Inhibitory Activity of Compounds on the Release of Tumor Necrosis Factor-α (TNF-α) from Human Peripheral Blood Mononuclear Cells Induced by Lipopolysaccharide (LPS) In Vitro
The concentration of hPBMC cells was adjusted to 0.25×10^6 cells/mL with RPMI1640 medium and inoculated into a 96-well plate in an amount of 50000 cells per well. […] Incubation was carried out for 4 h in an incubator at 37° C. and 5% CO2. The cell supernatant was collected, and the content of TNF-α in the supernatant sample was detected by human TNF-α Elisa quantitative test kit (Sino Biological, Cat #KIT10602). The IC50 value was calculated using GraphPad Prism software.

[2] = relative IC50, hPBMC, 100 ng/mL LPS

Chain of PDE4B2 (Q07343 other isoform, or with tags, fused parts or gaps): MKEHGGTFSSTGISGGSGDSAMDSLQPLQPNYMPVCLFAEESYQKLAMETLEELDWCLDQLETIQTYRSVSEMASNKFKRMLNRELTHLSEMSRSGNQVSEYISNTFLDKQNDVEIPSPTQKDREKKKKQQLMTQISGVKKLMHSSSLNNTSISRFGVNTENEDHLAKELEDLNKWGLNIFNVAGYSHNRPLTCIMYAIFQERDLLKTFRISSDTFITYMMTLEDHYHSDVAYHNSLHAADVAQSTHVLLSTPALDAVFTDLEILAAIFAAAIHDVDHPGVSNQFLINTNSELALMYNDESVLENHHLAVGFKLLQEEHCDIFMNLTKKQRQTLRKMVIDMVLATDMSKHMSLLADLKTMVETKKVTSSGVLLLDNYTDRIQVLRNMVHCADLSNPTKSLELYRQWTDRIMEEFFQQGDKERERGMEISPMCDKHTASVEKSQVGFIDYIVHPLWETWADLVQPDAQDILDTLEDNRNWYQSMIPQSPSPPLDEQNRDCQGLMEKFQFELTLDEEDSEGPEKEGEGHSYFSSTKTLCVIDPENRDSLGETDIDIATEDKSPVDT

Row | Structure (SMILES) | IC50 (PDE4B2; read-out: PDE4B2 IC50) | IC50 (PDE4D2) | IC50 (PDE4B2) | also measured
1 | [O-][S+]1CCc2nc(N3C[C@@H]4CC(c5ccc(Cl)cc5)=C[C@@H]4C3)nc(NC3CN(CCCF)C3)c21 (single isomer, unassigned) [Compound 24-2] | < 10 nM | 10 to 50 nM |  | 
2 | CC#Cc1cnc(C2=CCN(c3nc4c(c(NC(C)(C)COC(N)=O)n3)[S+]([O-])CC4)CC2)nc1 (single isomer, unassigned) [Compound 110-1] |  |  |  | Max inhibition (%) ([1]; hPBMC, 100 ng/mL LPS): 88.09%; IC50 [1, 2]: < 10 nM
3 | CC#Cc1cnc(C2=CCN(c3nc4c(c(NC(C)(C)COC(N)=O)n3)[S+]([O-])CC4)CC2)nc1 (single isomer, unassigned) [Compound 110-2] |  |  |  | Max inhibition (%) ([1]; hPBMC, 100 ng/mL LPS): 74.07%; IC50 [1, 2]: < 10 nM
4 | [O-][S@@+]1CCCc2nc(N3CCN(c4ncc(Cl)cn4)CC3)nc(NC3(CO)CCC3)c21 [Compound 12-2] | < 10 nM | 10 to 50 nM |  | 
5 | [O-][S@@+]1CCCc2nc(N3C[C@H]4CN(c5ccc6c(c5)CC6)C[C@H]4C3)nc(NC3(CO)CCC3)c21 [Compound 13-2] | < 10 nM | 10 to 50 nM |  | 
6 | [O-][S@@+]1CCCc2nc(N3C[C@H]4CN(c5ncc(Cl)cn5)C[C@H]4C3)nc(NC3(CO)CCC3)c21 [Compound 14-1] | 10 to 50 nM | 10 to 50 nM |  | 
7 | [O-][S@+]1CCCc2nc(N3C[C@H]4CN(c5ccc(Cl)cc5)C[C@H]4C3)nc(NC3(CO)CCC3)c21 [Compound 15-2] | < 10 nM | 10 to 50 nM |  | 
8 | [O-][S@@+]1CCCc2nc(N3CCC=C(c4ccc(Cl)cc4)CC3)nc(NC3(CO)CCC3)c21 [Compound 16-2] | 10 to 50 nM | 10 to 50 nM |  | 
9 | [O-][S@@+]1CCCc2nc(N3CCC=C(c4ncc(Cl)cn4)CC3)nc(NC3(CO)CCC3)c21 [Compound 17-2] | < 10 nM | 10 to 50 nM |  | 
10 | O=C1CCCc2nc(N3CC4=C(CN(c5ncc(Cl)cn5)C4)C3)nc(NC3(CO)CCC3)c21 [Compound 19-1] | < 10 nM | 10 to 50 nM |  | 
11 | [O-][S@+]1CCc2nc(N3CC=C(c4ncc(Cl)cn4)CC3)nc(NC3(CO)CCCC3)c21 [Compound 30] |  | < 10 nM | < 10 nM | 
12 | CC(C)(CO)Nc1nc(N2CC=C(c3ncc(Cl)cn3)CC2)nc2c1[S+]([O-])CC2 (stereo not drawn) [Compound 31] |  | 10 to 50 nM | 10 to 50 nM | 
13 | C#Cc1cnc(C2=CCN(c3nc4c(c(Nc5cccc(F)c5)n3)[S@@+]([O-])CC4)CC2)nc1 [Compound 36-2] | 10 to 50 nM | 10 to 50 nM |  | 
14 | C#Cc1cnc(C2=CCN(c3nc4c(c(NC5(c6ncc[nH]6)CCC5)n3)[S@+]([O-])CC4)CC2)nc1 [Compound 37] |  |  |  | IC50 ([1]; Homo sapiens, PBMC): 10 to 50 nM; Emax ([1]; Homo sapiens, PBMC, hPBMC, 100 ng/mL LPS, read-out: Max inhibition (%)): 78.3%
15 | NC(=O)OCC1(Nc2nc(N3CC=C(c4ncc(C5CC5)cn4)CC3)nc3c2[S@+]([O-])CC3)CCC1 [Compound 47] |  | < 10 nM |  | Max inhibition (%) ([1]; hPBMC, 100 ng/mL LPS): 80.45%; IC50 [1, 2]: < 10 nM
16 | O=S1(=O)CCCc2nc(N3CC=C(c4ncc(Cl)cn4)CC3)nc(NC3(CO)CCC3)c21 [Compound 54] |  |  | 50 to 100 nM | 
17 | NC(=O)OCC1(Nc2nc(N3CCC(c4ncc(Cl)cn4)CC3)nc3c2[S@+]([O-])CC3)CCC1 [Compound 55] |  |  | 50 to 100 nM | 
18 | C#Cc1cnc(N2CCN(c3nc4c(c(NC5(COC(N)=O)CCC5)n3)[S@+]([O-])CC4)CC2)nc1 [Compound 57] |  | 10 to 50 nM | < 10 nM | 
19 | NC(=O)OCC1(Nc2nc(N3C[C@H]4CN(c5ccc6c(c5)CC6)C[C@H]4C3)nc3c2[S@+]([O-])CC3)CCC1 [Compound 58] |  | 10 to 50 nM | < 10 nM | 
20 | [O-][S@+]1CCc2nc(N3CC4CN(c5ccc6c(c5)CC6)CC4C3)nc(Nc3cccc(S(F)(F)(F)(F)F)c3)c21 (stereo partly drawn) [Compound 75-1] | 10 to 50 nM | 10 to 50 nM |  | 
21 | CC#Cc1cnc(C2=CCN(c3nc4c(c(NC5(COC(F)F)CCC5)n3)[S@+]([O-])CC4)CC2)nc1 [Compound 92-1] |  | < 10 nM |  | Max inhibition (%) ([1]; hPBMC, 100 ng/mL LPS): 69.72%; IC50 [1, 2]: < 10 nM
22 | CC#Cc1cnc(C2=CCN(c3nc4c(c(NC5(COC(F)F)CCC5)n3)[S@@+]([O-])CC4)CC2)nc1 [Compound 92-2] |  | 10 to 50 nM |  | 
23 | C#Cc1ccc(C2=CCN(c3nc4c(c(NC5([C@@H](C)O)CCC5)n3)[S@+]([O-])CC4)CC2)nc1 [Compound 95-1] | < 10 nM | < 10 nM |  | 
24 | C#Cc1ccc(C2=CCN(c3nc4c(c(NC5([C@H](C)O)CCC5)n3)[S@@+]([O-])CC4)CC2)nc1 [Compound 95-4] | < 10 nM | < 10 nM |  | 
25 | C#Cc1cnc(C2=CCN(c3nc4c(c(NC5([C@@H](C)O)CCC5)n3)[S@@+]([O-])CC4)CC2)nc1 [Compound 96-3] | < 10 nM | 10 to 50 nM |  | 

Row | Structure (SMILES) | IC50 (PDE4B2; read-out: PDE4B2 IC50) | IC50 (PDE4D2) | IC50 (PDE4B2) | also measured
26 | CC(C)(COC(N)=O)Nc1nc(N2CCC=C(c3ncc(Cl)cn3)CC2)nc2c1[S@+]([O-])CC2 [Compound 102-1] |  |  |  | Max inhibition (%) ([1]; hPBMC, 100 ng/mL LPS): 99.73%; IC50 [1, 2]: 10 to 50 nM
27 | CC(C)(COC(N)=O)Nc1nc(N2CCC=C(c3ncc(Cl)cn3)CC2)nc2c1[S@@+]([O-])CC2 [Compound 102-2] |  |  |  | Max inhibition (%) ([1]; hPBMC, 100 ng/mL LPS): 87.54%; IC50 [1, 2]: < 10 nM
28 | CC(C)(CO)Nc1nc(N2CC=C(c3ccc4c(c3)C[Si](C)(C)C4)CC2)nc2c1[S@+]([O-])CC2 [Compound 107] | 10 to 50 nM | 10 to 50 nM |  | 
29 | CC(C)(COC(N)=O)Nc1nc(N2CC=C(c3ccc4c(c3)C[Si](C)(C)C4)CC2)nc2c1[S@+]([O-])CC2 [Compound 108] |  | 10 to 50 nM | 10 to 50 nM | 
30 | CN1C[C@@H](Nc2nc(N3C[C@H]4CN(c5ccc6c(c5)CC6)C[C@H]4C3)nc3c2[S@+]([O-])CC3)CCC1=O [Compound 109-2] | 10 to 50 nM | 50 to 100 nM |  | 
31 | CC#Cc1cnc2c(c1)OC[C@H]1CN(c3nc4c(c(NC(C)(C)COC(N)=O)n3)[S@+]([O-])CC4)CCN21 [Compound 112-2] | 10 to 50 nM | 50 to 100 nM |  | 
32 | CC(C)(COC(N)=O)Nc1nc(N2CCN3c4ncc(C5CC5)cc4OC[C@H]3C2)nc2c1[S@+]([O-])CC2 [Compound 113-2] | 10 to 50 nM | 50 to 100 nM |  | 
33 | CC(C)(COC(N)=O)Nc1nc(N2CC=C(c3ncc(C4CC4)cn3)C2)nc2c1[S@+]([O-])CC2 [Compound 116] |  | 50 to 100 nM | 10 to 50 nM | 
34 | CC(C)(COC(N)=O)Nc1nc(N2CC=C(c3ncccn3)CC2)nc2c1[S@+]([O-])CC2 [Compound 118] |  | 10 to 50 nM | 10 to 50 nM | 
35 | Cc1cnc(C2=CCN(c3nc4c(c(NC(C)(C)COC(N)=O)n3)[S@+]([O-])CC4)CC2)nc1 [Compound 122] |  | 10 to 50 nM | 10 to 50 nM | 
36 | COc1cnc(C2=CCN(c3nc4c(c(NC(C)(C)COC(N)=O)n3)[S@+]([O-])CC4)CC2)nc1 [Compound 124] |  | 10 to 50 nM | 10 to 50 nM | 
37 | CC(C)(COC(N)=O)Nc1nc(N2CC=C(c3ncc4c(n3)CCC4)CC2)nc2c1[S@+]([O-])CC2 [Compound 125] |  | 10 to 50 nM | 10 to 50 nM | 
38 | CC(C)(COC(N)=O)Nc1nc(N2CC=C(c3ncc(C4CCC4)cn3)CC2)nc2c1[S@+]([O-])CC2 [Compound 126] |  | 10 to 50 nM | < 10 nM | 
39 | CCOc1cnc(C2=CCN(c3nc4c(c(NC(C)(C)COC(N)=O)n3)[S@+]([O-])CC4)CC2)nc1 [Compound 128] |  | < 10 nM | < 10 nM | 
40 | CC(C)c1cnc(C2=CCN(c3nc4c(c(NC(C)(C)COC(N)=O)n3)[S@+]([O-])CC4)CC2)nc1 [Compound 129] |  | 10 to 50 nM | < 10 nM | 
41 | CC(C)(COC(N)=O)Nc1nc(N2CC=C(c3ncc(C(F)F)cn3)CC2)nc2c1[S@+]([O-])CC2 [Compound 130] |  | 10 to 50 nM | 10 to 50 nM | 
42 | CC(C)(COC(N)=O)Nc1nc(N2CC=C(c3ncc4c(n3)CC4)CC2)nc2c1[S@+]([O-])CC2 [Compound 132] |  | 10 to 50 nM | 10 to 50 nM | 
43 | CC(C)(CC#N)Nc1nc(N2CC=C(c3ncc(C4CC4)cn3)CC2)nc2c1[S@+]([O-])CC2 [Compound 134] | < 10 nM | < 10 nM |  | 
44 | N#CCC1(Nc2nc(N3CC=C(c4ncc(C5CC5)cn4)CC3)nc3c2[S@+]([O-])CC3)CCC1 [Compound 135] |  | < 10 nM | < 10 nM | 
45 | CC(C)(COC(N)=O)Nc1nc(N2CC=C(c3ncc4occc4n3)CC2)nc2c1[S@+]([O-])CC2 [Compound 136] |  | < 10 nM | < 10 nM | 
46 | CC(C)(COC(N)=O)Nc1nc(N2CCC=C(c3ncc(C4CC4)cn3)CC2)nc2c1[S@+]([O-])CC2 [Compound 137] |  | 10 to 50 nM | 10 to 50 nM | 
47 | CN(C)c1cnc(C2=CCN(c3nc4c(c(NC(C)(C)COC(N)=O)n3)[S@+]([O-])CC4)CC2)nc1 [Compound 138] |  | 10 to 50 nM | 10 to 50 nM | 
48 | COC(=O)NCC(C)(C)Nc1nc(N2C[C@H]3CC(c4ncc5c(n4)CC5)=C[C@H]3C2)nc2c1[S@+]([O-])CC2 [Compound 139-2] | 10 to 50 nM | 10 to 50 nM |  | 
49 | COC(=O)NCC(C)(C)Nc1nc(N2CCN3c4ncc(C)cc4OC[C@H]3C2)nc2c1[S@+]([O-])CC2 [Compound 141-1] | 10 to 50 nM | 10 to 50 nM |  | 
50 | COC(=O)NCC(C)(C)Nc1nc(N2CCN3c4ncc(C)cc4OC[C@@H]3C2)nc2c1[S@+]([O-])CC2 [Compound 141-2] | 10 to 50 nM | 50 to 100 nM |  | 
